From patent US10021881B2, “Vaporized administration of pesticides” (priority 2016, dated 2018)

Assay: Thermo Gravity Analysis (TGA) degradation temperature
Assay type: physicochemical
Conditions: for temperature at which degradation began (TGA): ramp 10° C. per minute to 300° C.
Protocol: This example relates to experiments performed to determine the degradation temperatures of pyrimethanil technical compounds and fungicide samples. In the present example, pyrimethanil compounds from China (compound 1) and Europe (compound 2) were analyzed by Thermo Gravity Analysis (TGA). The pyrimethanil samples were run in both air and nitrogen atmospheres on the Q5000 TGA instrument (TA Instruments) equipped in open platinum pans, and using standard TGA test methods as follows: select gas 1 and 2, data storage on, ramp at 10° C. per minute to 300° C., data storage off, and end method. An isothermal method was also performed according to standard methods.

SMILES: Cc1cc(C)nc(Nc2ccccc2)n1 [compound 1]
- temperature at which degradation began (TGA) (in air): about 120.3 °C
- temperature at which degradation was complete (TGA) (in both air and nitrogen): about 200 °C
- temperature at which degradation began (TGA) (in nitrogen): about 120.6 °C
